Calls of active or inactive are those of the source.
What was measured:
[1] = blockers of HIV-1 envelope-mediated cell-cell fusion – cherry-pick, dose response (AID 652057); assay type: functional, cell-based
[2] = blockers of HIV-1 ZM109 envelope-driven cell-cell fusion – HeLa effector, CEM target cells, luciferase, cherry-pick, dose response (AID 652058); assay type: functional, cell-based;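 also: luciferase signal from HIV-1 Env mediated cell-cell fusion of effector and target cells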
[3] = HIV-1 AD8 envelope cell-cell fusion blockers – cherry-pick, dose response (AID 652062); assay type: functional, cell-based;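 also: luciferase signal from cell-cell fusion driven by HIV-1 clade B AD8 Env; potency is for inhibitors of fusion seen as a drop in luminescence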
[4] = off-target signal loss in HeLa-CEM21 co-culture – HeLa F-luc CTL cells, cherry-picked, counter-screen for HIV-1 Env fusion inhibitor project, dose response (AID 652040); assay type: functional, cell-based;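 also: potency for signal decrease marking cytotoxic or nonspecific inhibition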
[5] = target: Genome polyprotein (dengue virus type 2, UniProt P29990); assay: flavivirus cap methylation enzyme inhibition – biochemical, confirmation dose response, primary screen (AID 588689); assay type: functional
Sequence of Genome polyprotein (P29990 2492-3391 limits assumed): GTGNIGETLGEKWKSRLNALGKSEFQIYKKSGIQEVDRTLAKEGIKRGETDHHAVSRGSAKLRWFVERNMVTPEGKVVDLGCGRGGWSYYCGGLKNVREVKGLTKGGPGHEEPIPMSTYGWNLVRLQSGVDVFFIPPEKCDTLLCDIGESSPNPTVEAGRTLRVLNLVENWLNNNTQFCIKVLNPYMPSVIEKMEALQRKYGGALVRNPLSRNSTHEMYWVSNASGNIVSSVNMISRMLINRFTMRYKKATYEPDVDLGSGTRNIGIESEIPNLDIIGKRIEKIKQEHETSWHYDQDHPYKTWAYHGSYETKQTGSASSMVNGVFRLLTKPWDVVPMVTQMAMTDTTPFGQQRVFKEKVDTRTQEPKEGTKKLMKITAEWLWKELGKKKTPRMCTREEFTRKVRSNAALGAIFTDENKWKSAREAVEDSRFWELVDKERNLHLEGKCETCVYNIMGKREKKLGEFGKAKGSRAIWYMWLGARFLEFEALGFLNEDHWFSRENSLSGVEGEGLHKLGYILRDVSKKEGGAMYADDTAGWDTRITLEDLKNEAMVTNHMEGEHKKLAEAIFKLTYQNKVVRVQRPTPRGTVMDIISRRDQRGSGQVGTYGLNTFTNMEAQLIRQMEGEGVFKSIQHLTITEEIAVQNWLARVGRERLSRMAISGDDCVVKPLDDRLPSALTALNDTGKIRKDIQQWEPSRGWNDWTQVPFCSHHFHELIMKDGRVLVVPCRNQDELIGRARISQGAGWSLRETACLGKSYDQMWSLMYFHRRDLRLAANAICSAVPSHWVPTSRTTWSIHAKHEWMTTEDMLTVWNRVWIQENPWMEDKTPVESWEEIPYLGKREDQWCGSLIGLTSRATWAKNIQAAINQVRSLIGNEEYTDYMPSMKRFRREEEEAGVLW

[6] = target: Cytochrome P450 3A4 (Homo sapiens, UniProt P08684);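 also: CYP3A4 tested as one member of a cytochrome P450 panel screen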
Sequence of Cytochrome P450 3A4 (P08684 whole entry): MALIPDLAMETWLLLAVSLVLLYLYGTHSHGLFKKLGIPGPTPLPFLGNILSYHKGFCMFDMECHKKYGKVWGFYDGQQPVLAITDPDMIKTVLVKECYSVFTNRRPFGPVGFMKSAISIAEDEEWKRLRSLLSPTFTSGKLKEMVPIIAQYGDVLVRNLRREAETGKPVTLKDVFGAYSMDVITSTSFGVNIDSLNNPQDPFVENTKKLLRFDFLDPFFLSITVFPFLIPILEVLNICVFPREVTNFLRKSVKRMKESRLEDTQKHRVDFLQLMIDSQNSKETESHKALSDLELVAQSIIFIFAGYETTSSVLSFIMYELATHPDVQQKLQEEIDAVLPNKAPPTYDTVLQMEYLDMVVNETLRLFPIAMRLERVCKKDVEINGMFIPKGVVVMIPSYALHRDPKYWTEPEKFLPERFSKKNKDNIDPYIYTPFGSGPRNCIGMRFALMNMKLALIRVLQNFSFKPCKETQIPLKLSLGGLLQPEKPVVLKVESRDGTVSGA

[7] = target: Cytochrome P450 2C19 (Homo sapiens, UniProt P33261); assay: Cytochrome panel assay with activity outcomes. Panel member name: p450-cyp2c19 Compounds with AC50 equal or less than 10 uM are considered active; assay type: functional; conditions: read-out: AC50
Sequence of Cytochrome P450 2C19 (P33261 whole entry): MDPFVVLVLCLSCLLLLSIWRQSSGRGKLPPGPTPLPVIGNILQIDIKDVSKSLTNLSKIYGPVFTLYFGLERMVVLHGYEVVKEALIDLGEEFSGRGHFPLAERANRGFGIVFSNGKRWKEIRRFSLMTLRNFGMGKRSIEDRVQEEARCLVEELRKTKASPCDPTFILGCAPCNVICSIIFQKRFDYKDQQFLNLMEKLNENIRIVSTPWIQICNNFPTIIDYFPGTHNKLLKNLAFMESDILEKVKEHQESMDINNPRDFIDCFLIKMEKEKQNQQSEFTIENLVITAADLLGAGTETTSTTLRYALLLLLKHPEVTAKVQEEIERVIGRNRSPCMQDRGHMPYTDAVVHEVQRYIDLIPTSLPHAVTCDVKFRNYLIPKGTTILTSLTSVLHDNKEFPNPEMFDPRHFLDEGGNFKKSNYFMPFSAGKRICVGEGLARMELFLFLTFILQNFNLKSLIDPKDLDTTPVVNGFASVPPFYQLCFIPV

[8] = target: T1, Cytochrome P450 2C9 (Homo sapiens, UniProt P11712)
T1 sequence (P11712 whole entry): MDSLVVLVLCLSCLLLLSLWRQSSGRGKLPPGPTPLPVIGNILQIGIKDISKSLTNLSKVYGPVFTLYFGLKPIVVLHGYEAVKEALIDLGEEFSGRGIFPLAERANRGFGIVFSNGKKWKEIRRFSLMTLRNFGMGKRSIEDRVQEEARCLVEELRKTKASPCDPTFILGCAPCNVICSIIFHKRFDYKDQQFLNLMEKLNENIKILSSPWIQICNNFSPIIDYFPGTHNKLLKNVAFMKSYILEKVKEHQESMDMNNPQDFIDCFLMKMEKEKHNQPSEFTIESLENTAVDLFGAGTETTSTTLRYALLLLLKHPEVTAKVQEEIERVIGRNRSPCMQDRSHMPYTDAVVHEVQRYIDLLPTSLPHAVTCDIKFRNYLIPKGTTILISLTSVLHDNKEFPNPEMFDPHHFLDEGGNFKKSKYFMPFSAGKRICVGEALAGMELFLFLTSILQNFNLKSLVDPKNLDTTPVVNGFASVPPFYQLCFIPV

[9] = target: T1, Cytochrome P450 2C9; remark: listed apart in the source
[10] = target: T2, Cytochrome P450 1A2 (Homo sapiens, UniProt P05177);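 also: PubChem cytochrome P450 panel assay, CYP1A2 panel member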
T2 sequence (P05177 whole entry): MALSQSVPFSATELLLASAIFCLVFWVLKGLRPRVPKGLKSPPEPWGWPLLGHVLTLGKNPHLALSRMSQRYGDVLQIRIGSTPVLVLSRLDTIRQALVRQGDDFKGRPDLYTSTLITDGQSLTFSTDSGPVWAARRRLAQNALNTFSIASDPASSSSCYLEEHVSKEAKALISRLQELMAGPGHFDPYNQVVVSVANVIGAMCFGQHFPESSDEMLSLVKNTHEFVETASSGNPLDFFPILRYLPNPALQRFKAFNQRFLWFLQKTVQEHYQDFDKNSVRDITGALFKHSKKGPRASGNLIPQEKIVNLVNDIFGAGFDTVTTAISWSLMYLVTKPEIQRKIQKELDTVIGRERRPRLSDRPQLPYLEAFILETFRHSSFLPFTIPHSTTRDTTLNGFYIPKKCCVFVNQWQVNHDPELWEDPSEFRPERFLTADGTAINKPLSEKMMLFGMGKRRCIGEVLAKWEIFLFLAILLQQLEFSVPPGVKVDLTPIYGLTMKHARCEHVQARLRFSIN

[11] = target: T3, Cysteine protease ATG4B (Homo sapiens, UniProt Q9Y4P1); assay type: functional;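 also: Fluorescence-based dose-response confirmation assay measuring inhibition of ATG4B activity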
T3 sequence (Q9Y4P1 whole entry): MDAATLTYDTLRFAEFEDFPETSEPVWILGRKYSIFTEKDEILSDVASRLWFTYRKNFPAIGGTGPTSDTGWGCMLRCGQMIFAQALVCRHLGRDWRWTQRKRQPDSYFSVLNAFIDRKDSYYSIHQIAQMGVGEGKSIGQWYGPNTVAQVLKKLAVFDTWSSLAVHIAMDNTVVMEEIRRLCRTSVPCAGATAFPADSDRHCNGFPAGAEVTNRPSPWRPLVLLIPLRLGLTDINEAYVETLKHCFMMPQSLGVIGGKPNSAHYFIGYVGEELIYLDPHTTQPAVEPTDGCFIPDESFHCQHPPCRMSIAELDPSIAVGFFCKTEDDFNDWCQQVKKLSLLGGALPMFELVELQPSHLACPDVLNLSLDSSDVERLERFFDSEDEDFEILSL

[12] = target: Phospholipase A2 (Homo sapiens, UniProt P04054); assay type: functional;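 also: confirmatory dose-response counterscreen on phospholipase A2, testing hits that came from an ultra-high-throughput screen for ATG4B inhibitors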
Sequence of Phospholipase A2 (P04054 whole entry): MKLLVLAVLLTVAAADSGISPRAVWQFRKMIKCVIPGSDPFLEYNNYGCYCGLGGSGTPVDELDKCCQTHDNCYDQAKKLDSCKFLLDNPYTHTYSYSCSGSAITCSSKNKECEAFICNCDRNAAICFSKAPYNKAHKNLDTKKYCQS

[13] = Trypanosoma cruzi growth suppression in host cells – NIH3T3 host cells, beta-gal luminescence, confirmation (AID 2044); assay type: functional, cell-based;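 also: intracellular parasites grown in NIH/3T3 mouse fibroblasts as host cells; luminescent beta-galactosidase reporter signal from transgenic T. cruzi replicating inside host cells; inhibitors lower the luminescence signal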
[14] = cells; assay type: functional
[15] = NIH3T3 cell viability loss – ATP luminescence, mouse fibroblasts, counter-screen, dose response (AID 2010); assay type: functional, cell-based;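 also: cells exposed to compound for about 90 hours before reading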
[16] = target: Heat shock protein HSP 90-alpha (Homo sapiens, UniProt P07900); assay type: functional, organism-based
[17] = target: T4, Streptokinase A (Streptococcus pyogenes serotype M1, UniProt P10520); assay: viability-normalized secreted streptokinase activity reduction – plasminogen activation absorbance, OD405, dose response (AID 1914); assay type: functional, Streptococcus pyogenes M1 GAS;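 also: secreted streptokinase activity via plasminogen activation per viability signal from cell pellet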
T4 sequence (P10520 whole entry): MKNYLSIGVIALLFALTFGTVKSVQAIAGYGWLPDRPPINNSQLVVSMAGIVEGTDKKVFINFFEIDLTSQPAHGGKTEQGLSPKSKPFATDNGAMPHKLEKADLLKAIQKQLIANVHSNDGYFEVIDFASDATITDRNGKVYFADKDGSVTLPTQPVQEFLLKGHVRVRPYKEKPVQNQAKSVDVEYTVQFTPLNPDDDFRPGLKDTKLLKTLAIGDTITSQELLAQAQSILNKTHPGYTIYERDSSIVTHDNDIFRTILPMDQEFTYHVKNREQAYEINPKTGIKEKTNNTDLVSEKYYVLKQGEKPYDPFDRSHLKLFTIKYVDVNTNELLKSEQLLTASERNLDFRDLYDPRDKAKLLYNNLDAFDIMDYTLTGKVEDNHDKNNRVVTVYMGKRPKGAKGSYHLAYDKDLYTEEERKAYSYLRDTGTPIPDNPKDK

[18] = target: T5, Carboxy-terminal domain RNA polymerase II polypeptide A small phosphatase 1 (Homo sapiens, UniProt Q9GZU7); assay: CTDSP1 inhibitors, concentration-response, biochemical, absorbance readout, ultra-high-throughput screen actives (AID 540297); assay type: functional
T5 sequence (Q9GZU7 whole entry): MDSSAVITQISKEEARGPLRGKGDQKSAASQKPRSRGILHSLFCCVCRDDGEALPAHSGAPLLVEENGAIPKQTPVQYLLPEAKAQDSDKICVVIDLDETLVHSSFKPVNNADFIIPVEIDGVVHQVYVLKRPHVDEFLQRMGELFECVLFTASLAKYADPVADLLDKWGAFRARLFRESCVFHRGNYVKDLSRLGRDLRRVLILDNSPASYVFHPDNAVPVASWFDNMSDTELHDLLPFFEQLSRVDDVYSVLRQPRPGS

[19] = tested on: Streptococcus sp. 'group A'; assay: Streptococcus pyogenes SK(-)GAS viability under kanamycin – luminescence, BacTiterGlo, confirmation, counter-screen for streptokinase expression inhibitor project, dose response (AID 1900); assay type: functional, organism-based
[20] = tested on: Streptococcus; assay: GAS UMAA2166 growth inhibition – luminescence, BacTiterGlo, counter-screen for streptokinase expression inhibitor project, dose response (AID 1915); assay type: functional, organism-based;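 also: potency for reduction of bacterial viability or growth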

With COc1ccccc1[C@@H]1C(c2ccc(F)cc2)=NN(c2ccccc2)[C@H]1C(=O)N1CCOC1=O the AC50 [1] was 3.59 µM (active), the AC50 [2] was 7.77 µM (active) and the AC50 [3] was 12.6 µM (active). The AC50 [4] was 7.61 µM (active).

With O=c1nc2n(c(O)c1C(c1ccc(O)cc1)c1c(O)nc3n(c1=O)CCS3)CCS2 (stereo not given) the IC50 [5] was 48.5 µM (active).

With COc1ccc2c(Cl)cc(NC(=S)Nc3ccccc3)nc2c1 the AC50 [6] was “inconclusive”, the AC50 [7] was 3.16 µM (inconclusive) and the AC50 [8] was 3.98 µM (inconclusive).

With Cc1ccc(OCC(=O)NNC(=O)c2cc3ccccc3o2)cc1C the AC50 [9] was “inconclusive”, the AC50 [7] was 3.55 µM (inconclusive) and the AC50 [10] was 2.51 µM (inconclusive).

For Cn1cccc1C(=O)N1CCC2(CC1)CCN(c1ccccc1)CC2, the AC50 [6] was “inconclusive” and the AC50 [10] was 12.6 µM (inconclusive).

In the case of Cc1sc2nc(C(C)C)nc(SCC(=O)NCc3ccco3)c2c1C, the IC50 [11] is reported as 11.1 µM (active) and the IC50 [12] is reported as 5.93 µM (active).

With CCOC(=O)c1ccc2nc(C)c(CCC(C)=O)c(Cl)c2c1 the AC50 [6] was “inconclusive” and the AC50 [8] was 1 µM (inconclusive).

For COc1ccc(OC)c(N2C(=O)NC(=O)/C(=C/c3ccc([N+](=O)[O-])s3)C2=O)c1, the EC50 [13] was 2.1 µM (active), the IC50 [14] was 23.7 µM (active) and the IC50 [5] was 18.8 µM (active). The EC50 [15] was > 60 µM (inconclusive) and the AC50 [16] was 3.06 µM (active).

In the case of CCC[N+]1(CC#CC2(O)CCCCC2)CCOCC1, the EC50 [17] is reported as > 150 µM (not active), the IC50 [18] is reported as 5.44 µM (active) and the EC50 [19] is reported as > 150 µM (not active). For the same compound, the EC50 [20] was > 150 µM (not active).

For Cc1cccc(N2C(=O)N3[C@H](c4ccc(Br)cc4)[C@@H]4C(=O)N(C(C)(C)C)C(=O)[C@@H]4[C@]3(C)C2=O)c1, the AC50 [1] was 0.48 µM (active), the AC50 [2] was 0.746 µM (active) and the AC50 [3] was 1.69 µM (active). The AC50 [4] was 0.936 µM (active).
